Measurements: paper PMC8113538, “Acute toxicity analysis of an inhibitor of BCL2, Disarib, in rats” (Scientific Reports, 2021)

Experiments:
[1] = design: method as in PMID 27693384; details: mice, cited from earlier work
[2] = system: Wistar rats; assay: Serum biochemistry (liver and kidney function); format: in vivo, Wistar rats (Rattus norvegicus); details: serum day 14
Method: After 14 days of Disarib administration, two animals were sacrificed using CO2 asphyxiation from each group, and blood was collected in tubes without using anticoagulant and centrifuged (900×g, 10 min). Serum glutamic pyruvic transaminase (SGPT), serum glutamic oxaloacetic transaminase (SGOT), alkaline phosphatase (ALP), albumin, total protein, bilirubin, blood urea nitrogen (BUN), creatinine, uric acid, and phosphorous were analyzed as described earlier[28],[29]. Analysis of serum samples was performed at Rohana Veterinary Diagnostic Lab, Bangalore, India.

[3] = system: Wistar rats; assay: Haematological analysis after single oral dose; format: in vivo, Wistar rats (Rattus norvegicus); details: for platelet count vs control / Eosinophils / MCH (mean corpuscular haemoglobin) / MCHC (mean corpuscular haemoglobin concentration) / MCV (mean cell volume) / Monocytes / PCV (packed cell volume): Wistar rats
Method: After 14 days of Disarib treatment, two animals from each group were sacrificed using CO2 asphyxiation, and blood was collected in EDTA-coated vials by heart puncture. Red blood cells (RBC), white blood cells (WBC), platelet counts (PLT), packed cell volume (PCV), hemoglobin (HGB), mean cell volume (MCV), mean corpuscular hemoglobin (MCH), mean corpuscular hemoglobin concentration (MCHC), lymphocytes, neutrophils, eosinophils and monocytes were analyzed as described before[28],[31],[43]. Analysis of blood samples was performed at Rohana Veterinary Diagnostic Lab, Bangalore, India.

[4] = Disarib solubility assay (shake flask method, HPLC); format: physicochemical; details: Disarib 100 µM
Method: The solubility of Disarib was determined by the shake flask method, as described earlier. Briefly, Disarib (100 μM) was dissolved in various solvents such as alcohol (40, 60, 80 and 100%), acid (0.1, 0.3 and 0.6 N HCl) and DMSO (25, 50, 75 and 100%). Further, solubility of Disarib was also tested in a combination of alcohol (40, 60%) and acid (0.1, 0.3 N). The suspension was vortexed 2–3 min and kept in a water bath for 5 min, as described before[25],[26],[39]. In each case, the samples were diluted in acetonitrile and analyzed using HPLC in acetonitrile:water gradient[27],[40]. The area under the curve (AUC) was determined by using the software LabSolutions, Shimadzu (Japan). The values used for plotting in GraphPad Prism (ver 5.1) softwarewere the mean of three independent experiments. The samples were analyzed by HPLC using the Shimadzu HPLC system. LC was carried out on the C18 analytical column. The mobile phase was the gradient of acetonitrile and water. Disarib specific peaks were detected at 232 nm. The injection volume was 20 μl, and the flow rate was 1.2 ml/min. The standard curves were constructed by plotting the peak area vs. concentration of Disarib[40].

[5] = system: Wistar rats; assay: Histology (H&E) of organs; format: in vivo, Wistar rats (Rattus norvegicus); details: 2000 mg/kg oral, day 14, H&E
Method: At the end of the experimental period (14 days), two animals from each group were sacrificed following CO2 asphyxiation. Liver, kidney, intestine, spleen, lungs, and heart were collected, fixed in 4% paraformaldehyde (PFA) and processed for histology, as described before[44]–[46]. For histological studies, tissues from rats treated with the highest dose (2000 mg/kg) and the vehicle control group were selected. Paraffin blocks were prepared and sections were taken using a rotary microtome (Leica Biosystems, Buffalo Grove, IL, USA) with a thickness of 5 µm. Following deparaffination, sections were stained with hematoxylin and eosin (H&E), mounted in DPX, and imaged under a bright-field microscope (Carl Zeiss AxioVision, Oberkochen, Germany).

[6] = system: mice; details: cited from earlier work
[7] = system: BCL2; design: method as in PMID 28223017, PMID 27693384; details: cited from earlier work
[8] = Wistar rats, 100, 1000, 2000 mg/kg oral
[9] = 100 mg/kg oral, day 14, animal a
[10] = 100 mg/kg oral, day 14, animal b
[11] = 1000 mg/kg oral, day 14, animal a
[12] = 1000 mg/kg oral, day 14, animal b
[13] = 2000 mg/kg oral, day 14, animal a
[14] = 2000 mg/kg oral, day 14, animal b
[15] = Wistar rats, 100, 1000, 2000 mg/kg oral, day 14

For `O=C1Nc2ccccc2/C1=C/c1c(-c2ccc(Br)cc2)nc2sc(Cc3ccc(Cl)cc3)nn12` [Disarib], the “time at which maximum circulating concentration (Cmax) was obtained” value ([1]; 10 mg/kg intraperitoneal) is listed as 30 min, the “clearance rate (CL)” value [1] is listed as 6.3 mL/min/kg and the t1/2 [1] is listed as 2.3 h. The “hepatic function tests (SGPT, ALP, SGOT, total protein, Albumin, Bilirubin)” value [2, 8] was “did not cause any adverse effect on liver function”, the “renal function (BUN, Creatinine, Phosphorous, Uric acid) vs control” value [2, 8] was “did not have any appreciable variation” and the “ALP level vs control” value ([2]; Wistar rats, 100 and 1000 mg/kg oral, higher than control) was “the increase was limited and was not significant”. For the same compound, the “SGOT level vs control” value ([2]; Wistar rats, maximal dose (2000 mg/kg) oral, within normal range, not significant) was “marginally higher”, the “platelet count vs control” value ([3]; 100 mg/kg oral, day 14) was “such a difference was not observed” and the Eosinophils [3, 9] was 1.0%. For the same compound, the “MCH (mean corpuscular haemoglobin)” value [3, 9] was 21.9 pg, the “MCHC (mean corpuscular haemoglobin concentration)” value (from here on “MCHC”) [3, 9] was 36.5% and the “MCV (mean cell volume)” value [3, 9] was 60.2 fL. For the same compound, the Monocytes [3, 9] was 3.5%, the “PCV (packed cell volume)” value [3, 9] was 40.0% and the Eosinophils [3, 10] was 1.2%. The “MCH (mean corpuscular haemoglobin)” value [3, 10] was 22.0 pg, the “MCHC” value [3, 10] was 33.0% and the “MCV (mean cell volume)” value [3, 10] was 66.6 fL. For the same compound, the Monocytes [3, 10] was 4.2%, the “PCV (packed cell volume)” value [3, 10] was 38.4% and the “platelet count vs control” value ([3]; 1000 mg/kg b. wt. oral, day 14) was “marginal variation”. For the same compound, the Eosinophils [3, 11] was 1.0%, the “MCH (mean corpuscular haemoglobin)” value [3, 11] was 21.2 pg and the “MCHC” value [3, 11] was 32.3%. The “MCV (mean cell volume)” value [3, 11] was 65.7 fL, the Monocytes [3, 11] was 3.2% and the “PCV (packed cell volume)” value [3, 11] was 40.2%. For the same compound, the Eosinophils [3, 12] was 1.2%, the “MCH (mean corpuscular haemoglobin)” value [3, 12] was 21.9 pg and the “MCHC” value [3, 12] was 27.9%. For the same compound, the “MCV (mean cell volume)” value [3, 12] was 78.6 fL, the Monocytes [3, 12] was 8.1% and the “PCV (packed cell volume)” value [3, 12] was 36.9%. For the same compound, the “platelet count vs control” value ([3]; 2000 mg/kg oral, day 14) was “such a difference was not observed”, the Eosinophils [3, 13] was 1.0% and the “MCH (mean corpuscular haemoglobin)” value [3, 13] was 21.2 pg. For the same compound, the “MCHC” value [3, 13] was 33.4%, the “MCV (mean cell volume)” value [3, 13] was 63.7 fL and the Monocytes [3, 13] was 2.4%. For the same compound, the “PCV (packed cell volume)” value [3, 13] was 41.2%, the Eosinophils [3, 14] was 1.1% and the “MCH (mean corpuscular haemoglobin)” value [3, 14] was 20.7 pg. For the same compound, the “MCV (mean cell volume)” value [3, 14] was 63.3 fL, the Monocytes [3, 14] was 3.0% and the “PCV (packed cell volume)” value [3, 14] was 43.3%. The “HGB content vs control” value [3, 15] was “no significant difference”, the “WBC counts vs control” value [3, 15] was “no significant difference” and the “lymphocytes count vs control” value [3, 15] was “no significant difference”. For the same compound, the “neutrophils count vs control” value [3, 15] was “no significant difference”, the “total number of RBC vs control” value [3, 15] was “no significant difference” and the “solubility in HCl” value ([4]; 0.1, 0.3 and 0.6 N HCl tested) was “soluble only in higher acidic conditions such as 0.3 N HCl”. For the same compound, the “DMSO concentration giving complete dissolution” value ([4]; HPLC at 232 nm) was over 75%, the “solubility in alcohol in combination with HCl” value ([4]; alcohol 40, 60% with HCl) was “soluble in 40% alcohol and 0.3 and 0.6 N HCl” and the intestine histology [5] was “Normal structure and organization”. The kidney histology [5] was “No glomerular dilation and tubular necrosis”, the liver histology [5] was “no cellular change in lobular liver texture, hepatocytes and sinusoidal spaces” and the “lungs and heart histology” value [5] was “did not show difference in the structure of alveoli and cardiac muscles”. For the same compound, the spleen histology [5] was “no difference in spleen architecture”, the visible toxicity ([6]; highest dose 2000 mg/kg oral) was “did not cause any visible toxicity” and the LD50 ([6]; oral route) was over 2000 mg/kg. The platelet count ([6]; oral, even at the highest dose) was “did not affect the platelet count” and the “interaction with BCL2” value [7] was “specifically interacted with BCL2”.
